From ChEMBL document CHEMBL6127143, “From Virtual Screens to Cellular Target Engagement: New Small Molecule Ligands for the Immune Checkpoint LAG-3” (ACS Med Chem Lett, 2024)

Test system: Raji
Assay: Cytotoxicity against human Raji cells expressing human LAG3 assessed as reduction in cell viability incubated for 1 hrs by trypan blue staining based analysis
Type: toxicity

| Compound | Activity |
| --- | --- |
| O=C(O)c1cccc(C(=O)NC2CCN(c3ccc(C(F)(F)F)cn3)CC2)c1 | Non-Toxic |
| Cc1nc(C(F)(F)F)nc(-c2cc(NCCN(C)C)nc3[nH]ccc23)c1C | Non-Toxic |
